Molecular target: T1, GCase (Homo sapiens, UniProt P04062)
T1 construct: endogenous in cells; host or cells: HeLa cells
T1 sequence (P04062 40-536): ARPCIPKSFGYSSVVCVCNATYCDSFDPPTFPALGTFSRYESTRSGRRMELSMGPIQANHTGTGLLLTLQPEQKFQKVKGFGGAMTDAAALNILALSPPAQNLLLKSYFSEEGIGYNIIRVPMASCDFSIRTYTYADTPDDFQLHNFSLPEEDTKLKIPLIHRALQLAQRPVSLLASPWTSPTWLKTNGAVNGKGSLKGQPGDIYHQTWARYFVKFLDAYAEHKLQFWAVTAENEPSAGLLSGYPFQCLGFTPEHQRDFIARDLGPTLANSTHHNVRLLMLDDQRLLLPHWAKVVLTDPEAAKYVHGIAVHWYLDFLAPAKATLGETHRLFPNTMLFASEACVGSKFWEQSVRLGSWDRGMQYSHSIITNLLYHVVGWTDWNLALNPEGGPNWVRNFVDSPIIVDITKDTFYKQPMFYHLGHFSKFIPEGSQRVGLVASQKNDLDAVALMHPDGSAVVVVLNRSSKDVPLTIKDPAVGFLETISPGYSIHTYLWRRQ
Experiment: activation of GCase in a live cell PFB assay in HELA cells
Assay type: cell-based
Details: activation of GCase, EC50 ranges
Experimental: Exemplary compounds were evaluated for activation of GCase in a live cell PFB assay in HELA cells (essentially as described in Ysselstein et al., “LRRK2 kinase activity regulates lysosomal glucocerebrosidase in neurons derived from Parkinson's disease patients” Nature Communications (2019) 10:5570). […] EC50 ranges: A: <10 μM; B: >10-50 μM; C: >50-100 μM; D: >100 μM.

Row | EC50 [µM] | SMILES
1 | < 10 | CCc1nccn1-c1cncc(N2CCC3(CC2)CCN(c2cc(C(F)(F)F)ccn2)C3=O)n1 [Cmpd 262]
2 | < 10 | CCc1nccn1-c1cncc(N2CCC3(CCN(c4ccc(C(F)(F)F)nc4)C3)CC2)n1 [Cmpd 263]
3 | > 100 | O=C1N(c2cc(C(F)(F)F)ccn2)CCC12CCN(c1nccn3cncc13)CC2 [Cmpd 264]
4 | 10 to 50 | CC1CC2(CCN(c3cnc4cnn(CC(F)F)c4n3)CC2)CN1c1ccc(C(F)(F)F)nc1 (centres unmarked) [Cmpd 265]
5 | < 10 | FC(F)Cn1ncc2ncc(N3CCC4(CCN(c5ccc(C(F)(F)F)nc5)C4)C(F)(F)C3)nc21 (centres unmarked) [Cmpd 266]
6 | 10 to 50 | Cc1cccc(-c2noc(C)c2C(=O)N2CCC3(CC2)CCN(c2cc(C(F)(F)F)ccn2)C3=O)c1 [Cmpd 267]
7 | 10 to 50 | Cc1cc(F)cc(-n2cc(C(=O)N3CCC4(CC3)CCN(c3cc(C(F)(F)F)ccn3)C4=O)nn2)c1 [Cmpd 268]
8 | 10 to 50 | O=C(c1nc2ccccc2cc1C1CC1)N1CCC2(CC1)CCN(c1cc(C(F)(F)F)ccn1)C2=O [Cmpd 269]
9 | 10 to 50 | Cc1cn(-c2ccccc2)nc1C(=O)N1CCC2(CC1)CCN(c1cc(C(F)(F)F)ccn1)C2=O [Cmpd 270]
10 | 10 to 50 | Cc1nn(CC(F)F)c2nc(N3CCC4(CC3)CCN(c3cncc(C(F)(F)F)n3)C4=O)cnc12 [Cmpd 271]
11 | 10 to 50 | O=C1N(c2cncc(C(F)(F)F)n2)CCC12CCN(c1cnc3cnn(CC(F)(F)F)c3n1)CC2 [Cmpd 272]
12 | 10 to 50 | O=C1N(c2cc(C(F)(F)F)ccn2)CCC12CCN(c1cnc3cnn(C4COC4)c3n1)CC2 [Cmpd 273]
13 | < 10 | O=C1CC2(CCN(c3cnc4cnn(CC(F)F)c4n3)CC2)CN1c1cncc(C(F)(F)F)n1 [Cmpd 274]
14 | < 10 | O=C1CC2(CCN(c3cnc4cnn(CC(F)F)c4n3)CC2)CN1c1nccc(C(F)(F)F)n1 [Cmpd 275]
15 | 10 to 50 | O=C1N(c2cncc(C(F)(F)F)n2)CCC12CCN(c1cnc3cnn(C4COC4)c3n1)CC2 [Cmpd 276]
16 | 10 to 50 | O=C1CC2(CCN(c3cnc4cnn(C5COC5)c4n3)CC2)CN1c1cncc(C(F)(F)F)n1 [Cmpd 277]
17 | < 10 | O=C1N(c2nccc(C(F)(F)F)n2)CCC12CCN(c1cnc3cnn(C4COC4)c3n1)CC2 [Cmpd 278]
18 | < 10 | O=C1CC2(CCN(c3cnc4cnn(C5COC5)c4n3)CC2)CN1c1nccc(C(F)(F)F)n1 [Cmpd 279]
19 | 10 to 50 | Cc1nn(CC(F)F)c2nc(N3CCC4(CC3)CC(=O)N(c3cncc(C(F)(F)F)n3)C4)cnc12 [Cmpd 280]

Row | EC50 [µM] | SMILES
20 | < 10 | Cc1nn(CC(F)F)c2nc(N3CCC4(CC3)CCN(c3nccc(C(F)(F)F)n3)C4=O)cnc12 [Cmpd 281]
21 | < 10 | Cc1nn(CC(F)F)c2nc(N3CCC4(CC3)CC(=O)N(c3nccc(C(F)(F)F)n3)C4)cnc12 [Cmpd 282]
22 | < 10 | Cc1nn(CC(F)F)c2nc(N3CCC4(CC3)CC(=O)N(c3cc(C(F)(F)F)ccn3)C4)cnc12 [Cmpd 283]
23 | 50 to 100 | O=C1CC2(CCN(c3cnc4cnn(C5COC5)c4n3)CC2)CN1c1cc(C(F)(F)F)ccn1 [Cmpd 284]
24 | 10 to 50 | O=C1N(c2cc(C(F)(F)F)ccn2)CCC12CCN(c1ncc3cnn(CC(F)F)c3n1)CC2 [Cmpd 285]
25 | < 10 | O=C1CC2(CCN(c3ncc4cnn(CC(F)F)c4n3)CC2)CN1c1cc(C(F)(F)F)ccn1 [Cmpd 286]
26 | > 100 | O=C1N(c2cncc(C(F)(F)F)n2)CCC12CCN(c1ncc3cnn(CC(F)F)c3n1)CC2 [Cmpd 287]
27 | 10 to 50 | O=C1CC2(CCN(c3ncc4cnn(CC(F)F)c4n3)CC2)CN1c1cncc(C(F)(F)F)n1 [Cmpd 288]
28 | 10 to 50 | O=C1N(c2nccc(C(F)(F)F)n2)CCC12CCN(c1ncc3cnn(CC(F)F)c3n1)CC2 [Cmpd 289]
29 | < 10 | O=C1CC2(CCN(c3ncc4cnn(CC(F)F)c4n3)CC2)CN1c1nccc(C(F)(F)F)n1 [Cmpd 290]
30 | < 10 | O=C1N(c2ccc(C(F)(F)F)nc2)C(c2ccccc2)CC12CCN(c1cnc3cnn(CC(F)F)c3n1)CC2 (centres unmarked) [Cmpd 291]
31 | 10 to 50 | O=C1CC2(CCN(c3cnc4cnn(CC(F)F)c4n3)CC2)CCN1c1ccc(C(F)(F)F)cn1 [Cmpd 293]
32 | 10 to 50 | O=C1CCC2(CCN(c3cnc4cnn(CC(F)F)c4n3)CC2)CN1c1ccc(C(F)(F)F)cn1 [Cmpd 294]
33 | 10 to 50 | FC(F)Cn1ncc2cnc(N3CCC4(CN(c5ccnc(C(F)(F)F)c5)C4)C3)nc21 [Cmpd 295]
34 | < 10 | Cc1nn(CC(F)F)c2nc(N3CCC4(CN(c5ccnc(C(F)(F)F)c5)C4)C3)ncc12 [Cmpd 296]
35 | 10 to 50 | COc1nc(N2CCC3(CN(c4ccnc(C(F)(F)F)c4)C3)C2)nc2c1cnn2CC(F)F [Cmpd 297]
36 | > 100 | FC(F)Cn1ncc2ncc(N3CCC4(CN(c5cncc(C(F)(F)F)n5)C4)C3)nc21 [Cmpd 298]
37 | 10 to 50 | FC(F)Cn1ncc2ncc(N3CCC4(C3)CN(c3nccc(C(F)(F)F)n3)C4)nc21 [Cmpd 299]
38 | 50 to 100 | CC(C)N1C(=O)N(c2cc(C(F)(F)F)ccn2)C(=O)C12CN(c1cnc3cnn(CC(F)F)c3n1)C2 [Cmpd 300]

Row | EC50 [µM] | SMILES
39 | 10 to 50 | Cc1nn(CC(F)F)c2nc(N3CCC4(CC3)CCN(c3cc(C(F)(F)F)ccn3)C4=O)ncc12 [Cmpd 301]
40 | < 10 | Cc1nn(CC(F)F)c2nc(N3CCC4(CC3)CC(=O)N(c3cc(C(F)(F)F)ccn3)C4)ncc12 [Cmpd 302]
41 | < 10 | COc1nc(N2CCC3(CC2)CCN(c2cc(C(F)(F)F)ccn2)C3=O)nc2c1cnn2CC(F)F [Cmpd 303]
42 | < 10 | COc1nc(N2CCC3(CC2)CC(=O)N(c2cc(C(F)(F)F)ccn2)C3)nc2c1cnn2CC(F)F [Cmpd 304]
43 | 10 to 50 | O=C1CC2(CCN(c3cnc4cnn(CC(F)F)c4n3)CC2)CN1c1cnc(C(F)(F)F)nc1 [Cmpd 305]
44 | 10 to 50 | O=C1N(c2cnc(C(F)(F)F)nc2)CCC12CCN(c1cnc3cnn(CC(F)F)c3n1)CC2 [Cmpd 306]
45 | < 10 | O=C1CC2(CCN(c3cnc4cnn(CC(F)F)c4n3)CC2)CN1Cc1ccc(C(F)(F)F)nc1 [Cmpd 307]
46 | 10 to 50 | O=C1N(Cc2ccc(C(F)(F)F)nc2)CCC12CCN(c1cnc3cnn(CC(F)F)c3n1)CC2 [Cmpd 308]
47 | 10 to 50 | O=C1CC2(CCN(c3cnc4cnn(CC(F)F)c4n3)CC2)CN1Cc1ccc(C(F)(F)F)cn1 [Cmpd 309]
48 | 10 to 50 | O=C1N(Cc2ccc(C(F)(F)F)cn2)CCC12CCN(c1cnc3cnn(CC(F)F)c3n1)CC2 [Cmpd 310]
49 | 10 to 50 | O=C1N(c2cc(C(F)(F)F)ccn2)C2(CC2)CC12CCN(c1cnc3cnn(CC(F)F)c3n1)CC2 [Cmpd 311]
50 | 50 to 100 | O=C1N(c2ccc(C(F)(F)F)cn2)C2(CC2)CC12CCN(c1cnc3cnn(CC(F)F)c3n1)CC2 [Cmpd 312]
51 | 10 to 50 | O=C(c1ccc(C(F)(F)F)nc1)N1CCC2(CCN(c3cnc4cnn(CC(F)F)c4n3)CC2)C1 [Cmpd 313]
52 | > 100 | O=C(c1ccc(C(F)(F)F)cn1)N1CCC2(CCN(c3cnc4cnn(CC(F)F)c4n3)CC2)C1 [Cmpd 314]
53 | 10 to 50 | O=C1CCC2(CN(c3cnc4cnn(CC(F)F)c4n3)C2)CN1c1ccc(C(F)(F)F)cn1 [Cmpd 315]
54 | 10 to 50 | FC(F)Cn1ncc2ncc(N3CCC4(CN(c5cnc(C(F)(F)F)nc5)C4)C3)nc21 [Cmpd 316]
55 | 10 to 50 | FC(F)Cn1ncc2ncc(N3CCC4(CN(c5cnc(C(F)(F)F)cn5)C4)C3)nc21 [Cmpd 317]
56 | 10 to 50 | FC(F)Cn1ncc2ncc(N3CCC4(CN(c5ccnc(C(F)(F)F)n5)C4)C3)nc21 [Cmpd 318]

— patent US20250034170A1, “SMALL MOLECULE MODULATORS OF GLUCOCEREBROSIDASE ACTIVITY AND USES THEREOF” (Vanqua Bio, Inc., priority 2021, published 2025)
